Measured values from US20260007681A1, “INDOLE DERIVATIVES AS ESTROGEN RECEPTOR DEGRADERS” (REGENTS OF THE UNIVERSITY OF MICHIGAN, priority 2022, published 2026).
Structures can show the parent of a compound that is named as a salt. Where two headings read alike, the source gives them in different places.

Columns and labels:
ERα_LBD(GST) = ERα_LBD(GST) (Homo sapiens (Human), UniProt P03372); test: IC50 measurements for binding to ERα_LBD (GST), LanthaScreen TR-FRET ERα competitive binding assay; settings: 4 nM ERα_LBD(GST), 3 nM Fluormone ES2 Green tracer, 60 min; read-out: ERα HTRF IC50
ERα_LBD(GST), sequence (P03372 311-547): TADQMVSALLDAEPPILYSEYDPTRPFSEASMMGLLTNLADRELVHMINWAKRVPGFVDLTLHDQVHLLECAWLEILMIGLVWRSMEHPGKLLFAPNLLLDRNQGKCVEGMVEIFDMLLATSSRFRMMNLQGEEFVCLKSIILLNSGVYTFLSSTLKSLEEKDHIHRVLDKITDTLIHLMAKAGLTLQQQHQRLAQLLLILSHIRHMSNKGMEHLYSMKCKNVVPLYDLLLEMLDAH
Description: • 1. ERα_LBD(GST) protein: 4 nM • 2. Tb Anti-GST: 2 nM • 3. Fluormone ES2 Green tracer: 3 nM • 4. Incubation time: 60 min • 5. DMSO: 1% • 6. Assay buffer: Adding 1M DTT to Nuclear receptor Buffer K for final 5 mM DTT. • 7. ZPE: 1% DMSO • 8. HPE: 1 μM ARV_471 • 9. LanthaScreen® TR-FRET ERα Competitive Binding Assay (ThermoFisher, #A15887)
• 1) Cherry pick 2 μL 10 mM compound stock to column 1 of a 384 intermediate plate • 2) Add 18 μL DMSO to column 1 to dilute compound to 1 mM. • 3) Transfer 10 μL 1 mM compound to column 1 of a LDV plate. • 4) Add 6 μl DMSO to column 2-10 of the LDV plate. • 5) Compounds undergo 3-fold serial dilution (3 μL+6 μL) in DMSO. • 6) Transfer 120 nL compound solution to assay plate. • ZPE: 120 nL 100% DMSO
Prepare complete nuclear receptor buffer K by adding 1 M DTT to nuclear receptor buffer K for a final concentration of 5 mM DTT. Complete nuclear receptor buffer K must be prepared fresh daily. Prepare 2X protein solution using complete nuclear receptor buffer K containing 8 nM ERα_LBD(GST) and 4 nM Tb Anti-GST. Then, prepare 2× Fluormone ES2 Green tracer (6 nM) using complete nuclear receptor buffer K. Add 6 μL 2× Fluormone ES2 green tracer into a compound plate (PerkinElmer 6008289) by dragonfly with one-tips-addition. Subsequently, add 6 μL 2× protein solution into the plate. Briefly and gently mix the 384-well plate on a plate shaker and incubate at room temperature protected from light for 60 min. The plate is sealed with a cover to minimize evaporation. Read the plate at wavelengths of 520 nm and 495 nm. Calculate the TR-FRET ratio by dividing the emission signal at 520 nm by the emission signal at 495 nm. Generate a binding curve by plotting the emission ratio vs. the log [ligand]. To determine the IC50 value, fit the data using XL-fit for a sigmoidal dose-response.

ER in MCF-7 cells = ER in MCF-7 cells (Homo sapiens (Human), UniProt P03372); test: In-cell western (ICW) ER degradation assay in MCF-7 cells (Compounds A1-A70); assay type: cell-based; settings: for DC50: ER degradation, 0.02 to 300 nM, read-out: MCF7 ICW DC50
ER in MCF-7 cells, sequence (P03372 whole entry): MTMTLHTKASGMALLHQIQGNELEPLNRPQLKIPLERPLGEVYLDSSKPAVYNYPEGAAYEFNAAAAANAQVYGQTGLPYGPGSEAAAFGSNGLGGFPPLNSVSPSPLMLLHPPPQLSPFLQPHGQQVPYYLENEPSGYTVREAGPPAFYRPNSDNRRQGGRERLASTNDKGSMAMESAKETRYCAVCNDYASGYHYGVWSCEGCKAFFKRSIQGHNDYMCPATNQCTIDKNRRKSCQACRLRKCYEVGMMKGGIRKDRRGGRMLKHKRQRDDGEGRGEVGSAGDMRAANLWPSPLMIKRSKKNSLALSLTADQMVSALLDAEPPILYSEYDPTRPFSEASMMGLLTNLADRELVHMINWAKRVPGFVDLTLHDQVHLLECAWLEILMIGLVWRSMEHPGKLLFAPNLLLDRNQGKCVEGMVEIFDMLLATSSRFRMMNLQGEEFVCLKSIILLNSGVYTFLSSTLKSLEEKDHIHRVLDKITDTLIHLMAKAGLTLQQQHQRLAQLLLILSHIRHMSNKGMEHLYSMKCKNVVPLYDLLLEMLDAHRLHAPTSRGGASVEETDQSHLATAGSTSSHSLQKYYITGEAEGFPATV

CRBN/DDB1 = CRBN/DDB1 (Homo sapiens (Human), UniProt Q96SW2); assay type: binding; settings: His tagged CRBN+DDB-DLS7+CXU4, Cy5-labeled Thalidomide probe, one hour incubation; read-out: CRBN HTRF IC50
CRBN/DDB1, sequence (Q96SW2 whole entry): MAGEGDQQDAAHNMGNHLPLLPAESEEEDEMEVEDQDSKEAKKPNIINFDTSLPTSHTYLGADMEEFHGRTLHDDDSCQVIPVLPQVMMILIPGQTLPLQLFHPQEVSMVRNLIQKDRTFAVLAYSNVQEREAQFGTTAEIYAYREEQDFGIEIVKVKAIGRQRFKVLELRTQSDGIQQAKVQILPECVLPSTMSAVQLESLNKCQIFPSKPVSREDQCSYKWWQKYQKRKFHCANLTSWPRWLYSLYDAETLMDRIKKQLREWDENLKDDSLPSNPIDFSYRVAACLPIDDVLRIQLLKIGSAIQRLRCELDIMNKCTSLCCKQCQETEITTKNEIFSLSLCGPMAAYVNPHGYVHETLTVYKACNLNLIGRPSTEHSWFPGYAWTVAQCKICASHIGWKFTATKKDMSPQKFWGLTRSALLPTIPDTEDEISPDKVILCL
CRBN/DDB1, sequence (Q16531 whole entry partner): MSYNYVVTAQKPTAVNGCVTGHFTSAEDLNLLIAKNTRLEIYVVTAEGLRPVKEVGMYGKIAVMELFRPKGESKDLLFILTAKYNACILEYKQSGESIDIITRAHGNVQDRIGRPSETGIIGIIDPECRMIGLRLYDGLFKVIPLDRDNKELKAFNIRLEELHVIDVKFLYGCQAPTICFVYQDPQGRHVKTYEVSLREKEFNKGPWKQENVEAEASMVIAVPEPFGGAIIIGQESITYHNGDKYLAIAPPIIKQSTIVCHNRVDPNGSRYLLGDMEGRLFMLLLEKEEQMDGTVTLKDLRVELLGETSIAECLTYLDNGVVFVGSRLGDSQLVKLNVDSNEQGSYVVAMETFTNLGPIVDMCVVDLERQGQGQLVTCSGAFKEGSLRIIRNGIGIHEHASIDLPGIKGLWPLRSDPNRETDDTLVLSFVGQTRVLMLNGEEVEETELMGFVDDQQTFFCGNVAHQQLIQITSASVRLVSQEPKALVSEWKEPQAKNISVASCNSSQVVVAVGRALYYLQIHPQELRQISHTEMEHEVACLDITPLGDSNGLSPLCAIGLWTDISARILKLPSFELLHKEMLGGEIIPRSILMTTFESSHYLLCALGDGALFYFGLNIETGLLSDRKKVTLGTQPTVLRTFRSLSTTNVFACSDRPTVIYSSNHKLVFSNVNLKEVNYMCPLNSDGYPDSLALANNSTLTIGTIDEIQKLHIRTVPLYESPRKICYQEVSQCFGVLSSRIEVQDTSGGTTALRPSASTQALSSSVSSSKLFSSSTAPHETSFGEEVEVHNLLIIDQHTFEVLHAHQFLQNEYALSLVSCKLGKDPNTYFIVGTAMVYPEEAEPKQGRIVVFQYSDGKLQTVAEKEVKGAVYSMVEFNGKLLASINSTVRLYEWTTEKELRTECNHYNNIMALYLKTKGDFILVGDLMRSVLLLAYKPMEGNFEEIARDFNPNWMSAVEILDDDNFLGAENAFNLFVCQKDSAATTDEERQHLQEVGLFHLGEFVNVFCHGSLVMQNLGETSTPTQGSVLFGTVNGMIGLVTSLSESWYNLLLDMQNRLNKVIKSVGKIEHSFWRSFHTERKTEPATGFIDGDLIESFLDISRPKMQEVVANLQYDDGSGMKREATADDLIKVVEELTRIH
Description: The binding potency was determined using H-TRF assay technology (Perkin Elmer). Compounds were serially diluted in DMSO and 0.2 μL volume was transferred to white 384-well plate.

ER in T47D cells = ER in T47D cells (Homo sapiens (Human), UniProt P03372); test: In-cell western (ICW) ER degradation assay in T47D cells (Compounds A1-A70); assay type: cell-based; settings: for DC50: ER degradation, 0.02 to 300 nM; for Dmax: T47D, read-out: T47D ICW Dmax (%)
ER in T47D cells, sequence (P03372 whole entry): as the sequence (P03372 whole entry) above

[1] = MCF7, maximal ER degradation, MCF-7 cells, 16 hrs treatment, read-out: MCF7 ICW Dmax (%)
[2] = MCF7, read-out: MCF7 ICW Dmax (%)
[3] = maximal ER degradation, T47D cells, 16 hrs treatment

SMILES	IC50 (ERα_LBD(GST)) [nM]	DC50 (ER in MCF-7 cells; MCF-7 cells, 16 hrs treatment) [nM]	MCF7 ICW Dmax (%) (ER in MCF-7 cells; maximal ER degradation, MCF-7 cells, 16 hrs treatment)	IC50 (CRBN/DDB1) [nM]	Dmax (ER in MCF-7 cells; [1]) [%]	Dmax (ER in MCF-7 cells; [2]) [%]	DC50 (ER in T47D cells; T47D cells, 16 hrs treatment) [nM]	Dmax (ER in T47D cells) [%]	Dmax (ER in T47D cells; [3]) [%]
COc1cc(N2CCC(CN3CCN4c5ccc6c(c5OC[C@@H]4C3)CN([C@H]3CCC(=O)NC3=O)C6=O)CC2)ccc1[C@@H]1c2[nH]c3ccccc3c2C[C@@H](C)N1CC(F)F [Compound A12, (S)-3-((S)-7-((1-(4-((1R,3R)-2-(2,2-difluoroethyl)-3-methyl-2,3,4,9-tetrahydro-1H-pyrido[3,4-b]indol-1-yl)-3-methoxyphenyl)piperidin-4-yl)methyl)-1-oxo-1,3,5,5a,6,7,8,9-octahydro-2H-pyrazino[1′,2′:4,5][1,4]oxazino[2,3-e]isoindol-2-yl)piperidine-2,6-dione]	< 10	< 1	B (“B”: >50% and <75%)						
COc1cc(N2CCC(CN3CCN4c5ccc6c(c5OC[C@H]4C3)CN([C@H]3CCC(=O)NC3=O)C6=O)CC2)ccc1[C@@H]1c2[nH]c3ccccc3c2C[C@@H](C)N1CC(F)F [Compound A19, (S)-3-((R)-7-((1-(4-((1R,3R)-2-(2,2-difluoroethyl)-3-methyl-2,3,4,9-tetrahydro-1H-pyrido[3,4-b]indol-1-yl)-3-methoxyphenyl)piperidin-4-yl)methyl)-1-oxo-1,3,5,5a,6,7,8,9-octahydro-2H-pyrazino[1′,2′:4,5][1,4]oxazino[2,3-c]isoindol-2-yl)piperidine-2,6-dione]	< 10	1 to 10		50 to 500	50 to 75				
COc1cc(N2CCC(CN3CCN4c5ccc6c(c5OC[C@H]4C3)CN([C@H]3CCC(=O)NC3=O)C6=O)CC2)ccc1[C@@H]1c2[nH]c3ccccc3c2C[C@@H](C)N1CC(C)(C)F [Compound A49, (S)-3-((R)-7-((1-(4-((1R,3R)-2-(2-fluoro-2-methylpropyl)-3-methyl-2,3,4,9-tetrahydro-1H-pyrido[3,4-b]indol-1-yl)-3-methoxyphenyl)piperidin-4-yl)methyl)-1-oxo-1,3,5,5a,6,7,8,9-octahydro-2H-pyrazino[1′,2′:4,5][1,4]oxazino[2,3-e]isoindol-2-yl)piperidine-2,6-dione]	≥ 10	< 1				> 75	< 1	50 to 75	
C[C@H]1Cc2c([nH]c3ccccc23)[C@H](c2cnc(N3CCC4(CC3)C[C@@H](CN3CCN5c6ccc7c(c6OC[C@@H]5C3)CN([C@@H]3CCC(=O)NC3=O)C7=O)CO4)nc2)N1CC(F)F [Compound A59, (R)-3-((S)-7-(((S)-8-(5-((1S,3S)-2-(2,2-difluoroethyl)-3-methyl-2,3,4,9-tetrahydro-1H-pyrido[3,4-b]indol-1-yl)pyrimidin-2-yl)-1-oxa-8-azaspiro[4.5]decan-3-yl)methyl)-1-oxo-1,3,5,5a,6,7,8,9-octahydro-2H-pyrazino[1′,2′:4,5][1,4]oxazino[2,3-e]isoindol-2-yl)piperidine-2,6-dione formate]	≥ 10	< 1				50 to 75	< 1		50 to 75
C[C@H]1Cc2c([nH]c3ccccc23)[C@H](c2cnc(N3CCC4(CC3)C[C@@H](CN3CCN5c6cc7c(cc6OC[C@H]5C3)C(=O)N([C@@H]3CCC(=O)NC3=O)C7)CO4)nc2)N1CC(F)F [Compound A61, (R)-3-((R)-3-(((S)-8-(5-((1S,3S)-2-(2,2-difluoroethyl)-3-methyl-2,3,4,9-tetrahydro-1H-pyrido[3,4-b]indol-1-yl)pyrimidin-2-yl)-1-oxa-8-azaspiro[4.5]decan-3-yl)methyl)-8-oxo-1,2,3,4,4a,5,8,10-octahydro-9H-pyrazino[1′,2′:4,5][1,4]oxazino[2,3-f]isoindol-9-yl)piperidine-2,6-dione]	≥ 10	< 1				50 to 75	< 1		50 to 75
C[C@H]1Cc2c([nH]c3ccccc23)[C@H](c2ccc(N3CCC(CN4CCN5c6ccc7c(c6OC[C@@H]5C4)CN([C@@H]4CCC(=O)NC4=O)C7=O)CC3)cn2)N1CC(F)(F)F [Compound A62, (R)-3-((S)-7-((1-(6-((1R,3S)-3-methyl-2-(2,2,2-trifluoroethyl)-2,3,4,9-tetrahydro-1H-pyrido[3,4-b]indol-1-yl)pyridin-3-yl)piperidin-4-yl)methyl)-1-oxo-1,3,5,5a,6,7,8,9-octahydro-2H-pyrazino[1′,2′:4,5][1,4]oxazino[2,3-e]isoindol-2-yl)piperidine-2,6-dione]		10 to 100		500 to 5000	25 to 50		10 to 100		25 to 50
C[C@H]1Cc2c([nH]c3ccccc23)[C@H](c2ccc(N3CCC(CN4CCN5c6cc7c(cc6OC[C@H]5C4)C(=O)N([C@@H]4CCC(=O)NC4=O)C7)CC3)cn2)N1CC(F)(F)F [Compound A64, (R)-3-((R)-3-((1-(6-((1R,3S)-3-methyl-2-(2,2,2-trifluoroethyl)-2,3,4,9-tetrahydro-1H-pyrido[3,4-b]indol-1-yl)pyridin-3-yl)piperidin-4-yl)methyl)-8-oxo-1,2,3,4,4a,5,8,10-octahydro-9H-pyrazino[1′,2′:4,5][1,4]oxazino[2,3-f]isoindol-9-yl)piperidine-2,6-dione]		> 100		500 to 5000	< 25		> 100		< 25
C[C@@H]1Cc2c([nH]c3ccccc23)[C@H](c2cnc(N3CCC4(CC3)C[C@@H](CN3CCN5c6ccc(C(=O)N[C@H]7CCC(=O)NC7=O)nc6OC[C@H]5C3)CO4)nc2)N1CC(F)F [Compound A65, (R)-3-(((S)-8-(5-((1S,3R)-2-(2,2-difluoroethyl)-3-methyl-2,3,4,9-tetrahydro-1H-pyrido[3,4-b]indol-1-yl)pyrimidin-2-yl)-1-oxa-8-azaspiro[4.5]decan-3-yl)methyl)-N-((S)-2,6-dioxopiperidin-3-yl)-1,2,3,4,4a,5-hexahydropyrazino[1,2-d]pyrido[2,3-b][1,4]oxazine-8-carboxamide]		1 to 10		50 to 500	50 to 75		1 to 10		50 to 75
C[C@H]1Cc2c([nH]c3ccccc23)[C@H](c2cnc(N3CCC4(CC3)C[C@@H](CN3CCC(c5ccc(N[C@@H]6CCC(=O)NC6=O)cc5)CC3)CO4)nc2)N1CC(F)F [Compound A66, (R)-3-((4-(1-(((S)-8-(5-((1S,3S)-2-(2,2-difluoroethyl)-3-methyl-2,3,4,9-tetrahydro-1H-pyrido[3,4-b]indol-1-yl)pyrimidin-2-yl)-1-oxa-8-azaspiro[4.5]decan-3-yl)methyl)piperidin-4-yl)phenyl)amino)piperidine-2,6-dione]		< 1		50 to 500	50 to 75		1 to 10		> 75
C[C@H]1Cc2c([nH]c3ccccc23)[C@H](c2cnc(N3CCC4(CC3)C[C@H](CN3CCC(c5ccc(N[C@H]6CCC(=O)NC6=O)cc5)CC3)CO4)nc2)N1CC(F)F [Compound A67, (S)-3-((4-(1-(((R)-8-(5-((1S,3S)-2-(2,2-difluoroethyl)-3-methyl-2,3,4,9-tetrahydro-1H-pyrido[3,4-b]indol-1-yl)pyrimidin-2-yl)-1-oxa-8-azaspiro[4.5]decan-3-yl)methyl)piperidin-4-yl)phenyl)amino)piperidine-2,6-dione]		< 1		500 to 5000	50 to 75		< 1		50 to 75
C[C@@H]1Cc2c([nH]c3ccccc23)[C@@H](c2cnc(N3CCC4(CC3)C[C@@H](CN3CCC(c5ccc(N[C@@H]6CCC(=O)NC6=O)cc5)CC3)CO4)nc2)N1CC(F)F [Compound A70, (3R)-3-((4-(1-((8-(5-((1R,3R)-2-(2,2-difluoroethyl)-3-methyl-2,3,4,9-tetrahydro-1H-pyrido[3,4-b]indol-1-yl)pyrimidin-2-yl)-1-oxa-8-azaspiro[4.5]decan-3-yl)methyl)piperidin-4-yl)phenyl)amino)piperidine-2,6-dione]	< 10	< 1			50 to 75		< 1		> 75
